Assay results taken from paper PMC9022420 (Scientific Reports, 2022).
Several values for one entry are separate records, joined by “and”; a condition that tells them apart may be missing. Equal values may be shown once.

What was measured:
[1] = Flavin photostability in PBS under white LED irradiation; format: physicochemical; conditions: 100 µM in PBS, white LED 1 × 10^5 lx, 30 min irradiation
Description: After successful synthesis and initial characterisation, we monitored the photostability of the compounds in PBS (1x, pH 7.4) which was used for PDI assays as distilled or ultrapure water destabilises bacterial cells and coronaviruses through osmotic pressures[37],[38], thereby augmenting inactivation results. […] This yields lumichrome as the major degradation product which can only act as a PS under UV-irradiation[40]. […] However, it appears that guanidino substitution in our case improves the photostability.
Figure S4: (A) Flavin photostability (100 µM) in PBS (0.1% DMSO) irradiated with 1x105 lx (35 mW/cm2) where A
= Abs at 450 nm and A0 = Abs at 450 nm at 0 min.
photostability. Experiments were performed using a quartz cuvette and measured using an Agilent Cary 300
(1 picture or pasted object on this page, not shown here)

[2] = Singlet oxygen quantum yield determination; format: physicochemical; conditions: in MeCN; for φΔ singlet oxygen quantum yield: calculated using Ru(bpy)3^2+ as the reference
[3] = UV-Vis absorption and emission spectra of flavins in DMSO; format: physicochemical; conditions: measured in DMSO
[4] = system: ssRNA (EGFP-encoding mRNA, ~ 1 k nt); assay: ssRNA photocleavage, agarose gel electrophoresis; format: biochemical; conditions: 10 µM flavin, 15 min white LED, PBS 0.1% DMSO
Protocol: A 20 µL aliquot was taken after 15 min of white LED irradiation (1 × 10^5 lx). Prior to loading, 2 µL of 6X Orange-G loading dye in glycerol were added to the aliquot and mixed vigorously. The gel was electrophoresed at 80 V for 35 min with 1% agarose gels in 1X Tris–acetate-EDTA (TAE) buffer. Gels were then imaged in a Syngene G:BOX Gel Documentation System and band % quantification was performed using ImageJ Gel Analyzer.

E. coli BL21(DE3) = assay: Photodynamic inactivation of E. coli (CFU counting); format: cell-based
Protocol: After an overnight aerobic culture in LB broth at 37 °C with shaking at 225 rpm, the resulting E. coli were centrifuged at 2,500 rpm for 10 min. The pellet was resuspended in PBS (Sigma, 1x, pH 7.4) to an OD600 value of 0.6 (~ 1 × 10^8 bacteria per ml). […] Aliquots of negative controls (0.5% DMSO in PBS; PBS only) and 100 μM flavin-bacteria samples were covered in foil to remain in dark, while all samples were plated onto a 96-well plate and exposed to white LED irradiation (1 × 10^5 lx) for 15 min. After 15 min of irradiation or darkness, each sample was serially diluted to its respective, appropriate dilution and plated onto an LB agar plate with 50 μg/mL kanamycin. Plates were incubated overnight at 37 °C in the dark. Survival of bacteria was determined by counting colony forming units (CFUs) the next day.
For time point data, aliquots of 100 μM flavin-bacteria solutions were taken at 5-min increments of irradiation (0, 5, 10, and 15 min) and evaluated similarly as above. Time point experiment with one-minute increments, between 0 and 5 min, were conducted for 100 μM F4-bacteria samples.

WI-38 cells [5] = assay: Light-induced toxicity towards WI-38 cells (MTS); format: cell-based, human; conditions: 10 μM flavin, 15 min irradiation 1 × 10^5 lx
Protocol: An adapted method reported by Maisch et al. was used to conduct phototoxicity studies on human lung fibroblasts, WI-38[28]. Cells were seeded into 96-well plates containing 10,000 cells/well in 100 µL complete growth medium and cultured for 24 h at 37 °C and 5% CO2. […] The resulting mixtures were then incubated in the dark for 5 min and then either illuminated with 1 × 10^5 lx for 5, 10 or 15 min, or incubated further in the dark for 15 min (dark control). After irradiation, the flavin solutions were removed and 100 μL of DMEM with 10% FBS and without phenol red was added to each well and incubated over night at 37 °C and 5% CO2. Subsequently, 20 µL of MTS reagent was added into each well and incubated at 37 °C and 5% CO2 for 1–4 h and the absorbance of each well was measured at 490 nm using a plate reader. Control measurements included negative control untreated cells with light and in the dark containing 0.1% DMSO and cells treated with flavins for 15 min in the dark. All experiments were conducted in biological triplicates. The percentage cell viability was calculated according to Eq. (1).

17Cl-1 cells = assay: 24 h MTS cytotoxicity assay, 17Cl-1; format: cell-based, murine; conditions: Mus musculus, 24 h incubation, dark
Protocol: (§1) The MTS tetrazolium compound is reduced by cells into a coloured formazan product which is soluble in cell culture media. It can be detected colorimetrically between 450 and 540 nm with the measured absorbance directly proportional to the amount of metabolically active cells in culture. Cells were seeded into clear 96-well plates containing 10,000 cells/well in 100 µL complete growth medium and cultured for 24 h at 37 °C and 5% CO2. […] After further 24 h incubation at 37 °C and 5% CO2, 20 µL of CelTiter 96® AQueous One Solution (Promega) was added into each well and incubated at 37 °C, 5% CO2 for 1–4 h, according to the manufacturer’s instruction. The absorbance of each well was measured at 490 nm using a plate reader (Spark, Tecan). Control measurements included negative control of cells with DMEM, cells with DMEM containing 0.1% DMSO, cell-free culture media (blank) and cell-free sample dilutions in culture media to evaluate potential sample interferences with MTS assay. All experiments were conducted in biological triplicates. The percentage cell viability was calculated according to Eq. (1):1 Cell viability(%)=100×Absorbanceoftreatedcells-Absorbanceofblank/Absorbanceofcontrol-Absorbanceofblank

WI-38 cells [6] = assay: 24 h MTS cytotoxicity assay, WI-38; format: cell-based; conditions: Homo sapiens, 24 h incubation, dark
Protocol: as §1

[7] = 10 µM flavin, 15 min irradiation
[8] = 100 µM flavin, 5 min irradiation (10.5 J/cm^2)
[9] = 100 µM flavin, 10 min irradiation

Row | Compound | photodecomposition / degradation [1] | φΔ singlet oxygen quantum yield [2] | λ1 (S0 → S1 absorption band) [3] [nm] | λ2 (S0 → S2 absorption band) [3] [nm] | λem (emission wavelength) [3] [nm] | % cleaved ssRNA [4] [%] | E. coli log10 reduction of CFUs (E. coli BL21(DE3); [7]) [log10] | E. coli log10 reduction of CFUs (E. coli BL21(DE3); [8]) [log10] | E. coli log10 reduction of CFUs (E. coli BL21(DE3); [9]) [log10] | reduction in cell viability (light-induced toxicity) (WI-38 cells [5]) | IC50 (17Cl-1 cells) [µM] | IC50 (WI-38 cells [6]) [µM] | ФΔ singlet oxygen quantum yield [2] [%] | E. coli reduction of bacteria (E. coli BL21(DE3); 100 µM flavin, 5 min irradiation) [%] | E. coli log10 reduction of CFUs (E. coli BL21(DE3); 100 µM flavin, 15 min irradiation) [log10] | E. coli reduction of bacteria (E. coli BL21(DE3); 100 µM flavin, 1 min irradiation) [%] | E. coli log10 reduction of CFUs (E. coli BL21(DE3); 100 µM flavin, 1 min irradiation (2.10 J/cm^2), calculated vs t0 = 7.9) | bacterial inactivation, log10 reduction (E. coli BL21(DE3); 15 min irradiation at 11 μM) [log10]
1 | CCCCCCCCn1c(=O)nc2n(CCN)c3cc(C)c(C)cc3nc-2c1=O [Flavin F1] | around 40% | 0.49 ± 0.12 | 444 | 349 | 507 | 12 | 0.2 | 0.1 | 0.1 | no decrease in cell viability | 70.2 | 96.1 | – | – | – | – | – | –
2 | CCCCCCCCn1c(=O)nc2n(CCNC(=N)N)c3cc(C)c(C)cc3nc-2c1=O [Flavin F2] | approximately 10% | 0.55 ± 0.10 | 446 | 350 | 512 | 46 | – | 3.4 | 5.9 | ~ 75% | > 100 | > 100 | 55 | > 99.9 | – | – | – | –
3 | CCCCCCCCn1c(=O)nc2n(CCN)c3cc(Br)c(Br)cc3nc-2c1=O [Flavin F3] | ~60% | 0.85 ± 0.09 | 443 | 336 | 508 | 35 | 0.4 | 1.3 | 1.7 | no decrease in cell viability | 3.66 | 30.9 | 85 | – | 1.8 | – | – | –
4 | CCCCCCCCn1c(=O)nc2n(CCNC(=N)N)c3cc(Br)c(Br)cc3nc-2c1=O [Flavin F4] | ~30% | 0.62 ± 0.10 | 444 | 340 | 513 | 42 | 2.8 | – | 8.7 | ~ 20% | 50.9 | > 100 | 62 | – | – | > 99.99 | 4.1 log10 and > 4 log10 | > 3
